The values that follow are results of earlier work, collected in patent US20130338198A1, “COMPOSITION FOR TREATING DERMATITIS AND ICHTHYOSIS, AND METHOD FOR TREATING DERMATITIS AND ICHTHYOSIS” (Skinvisible Pharmaceuticals, Inc., priority 2010, published 2013).

For the series the following is noted: in vivo.

Consider “Poly(vinylpyrrolidone/1-eicosene) [PVPE]”, for which the dermal toxicity result was “no demonstrable dermal toxicity”. For “Poly(vinylpyrrolidone/1-hexadecene) [PVPH]”, the dermal toxicity entry was “no demonstrable dermal toxicity”.
